From US7485651B2, “Compounds with activity on muscarinic receptors” (Acadia Pharmaceuticals, Inc., priority 1998, dated 2009) come the findings set out here.

Holding throughout (type): cell-based
The target in assay [1] is T1, α-adrenergic receptor subtype 1D (Homo sapiens, UniProt P25100).
T1 sequence (P25100 1-572): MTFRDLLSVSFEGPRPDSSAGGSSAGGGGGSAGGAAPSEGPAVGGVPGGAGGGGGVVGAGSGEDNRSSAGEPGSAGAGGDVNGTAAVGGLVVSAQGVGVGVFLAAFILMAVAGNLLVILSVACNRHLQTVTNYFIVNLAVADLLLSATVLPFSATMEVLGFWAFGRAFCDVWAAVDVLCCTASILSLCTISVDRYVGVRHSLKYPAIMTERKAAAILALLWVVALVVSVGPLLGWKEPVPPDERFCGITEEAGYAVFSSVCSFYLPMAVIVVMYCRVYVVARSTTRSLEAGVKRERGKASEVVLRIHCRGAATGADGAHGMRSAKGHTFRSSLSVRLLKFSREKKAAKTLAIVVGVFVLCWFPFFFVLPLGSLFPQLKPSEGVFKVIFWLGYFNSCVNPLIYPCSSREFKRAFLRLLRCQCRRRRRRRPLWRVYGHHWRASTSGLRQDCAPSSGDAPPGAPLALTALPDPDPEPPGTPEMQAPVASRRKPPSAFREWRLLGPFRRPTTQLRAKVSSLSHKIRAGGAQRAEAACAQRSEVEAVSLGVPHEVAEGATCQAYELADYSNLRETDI
In words: Test against other receptors: α-adrenergic 1D.

Assay [2] addresses T2, α-adrenergic receptor subtype 1B (Homo sapiens, UniProt P35368).
T2 sequence (P35368 1-520): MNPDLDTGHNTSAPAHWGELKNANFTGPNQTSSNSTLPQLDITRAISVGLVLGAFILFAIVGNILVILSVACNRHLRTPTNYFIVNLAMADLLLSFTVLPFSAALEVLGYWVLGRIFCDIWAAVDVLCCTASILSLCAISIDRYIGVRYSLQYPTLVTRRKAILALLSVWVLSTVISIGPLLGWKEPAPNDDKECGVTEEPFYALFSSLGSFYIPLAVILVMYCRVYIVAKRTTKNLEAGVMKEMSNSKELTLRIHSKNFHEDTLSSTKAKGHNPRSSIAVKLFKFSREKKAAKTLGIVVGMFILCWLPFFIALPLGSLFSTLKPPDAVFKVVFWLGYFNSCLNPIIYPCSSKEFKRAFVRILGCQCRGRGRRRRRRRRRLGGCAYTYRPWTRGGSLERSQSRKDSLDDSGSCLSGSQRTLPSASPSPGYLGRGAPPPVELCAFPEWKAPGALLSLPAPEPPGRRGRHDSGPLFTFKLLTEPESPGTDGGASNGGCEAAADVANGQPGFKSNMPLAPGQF
Put plainly: Test against other receptors: α-adrenergic 1B.

In assay [3] the target is T3, α-adrenergic receptor subtype 2C (Homo sapiens, UniProt P18825).
T3 sequence (P18825 1-462): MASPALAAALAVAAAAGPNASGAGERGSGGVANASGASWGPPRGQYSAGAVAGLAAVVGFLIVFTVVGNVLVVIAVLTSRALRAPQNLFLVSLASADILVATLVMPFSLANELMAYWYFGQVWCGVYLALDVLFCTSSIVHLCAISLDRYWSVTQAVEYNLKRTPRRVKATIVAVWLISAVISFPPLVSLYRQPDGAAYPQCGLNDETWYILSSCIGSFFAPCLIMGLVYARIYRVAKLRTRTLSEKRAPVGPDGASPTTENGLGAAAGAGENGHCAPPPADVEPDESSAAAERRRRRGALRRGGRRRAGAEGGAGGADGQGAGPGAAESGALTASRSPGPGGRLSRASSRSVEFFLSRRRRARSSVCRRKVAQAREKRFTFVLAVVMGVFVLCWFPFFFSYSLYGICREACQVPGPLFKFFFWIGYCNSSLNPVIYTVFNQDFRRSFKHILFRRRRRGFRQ
In words: Test against other receptors: α-adrenergic 2C.

The target of assay [4] is T4, α-adrenergic receptor subtype 2B (Homo sapiens, UniProt P18089).
T4 sequence (P18089 1-450): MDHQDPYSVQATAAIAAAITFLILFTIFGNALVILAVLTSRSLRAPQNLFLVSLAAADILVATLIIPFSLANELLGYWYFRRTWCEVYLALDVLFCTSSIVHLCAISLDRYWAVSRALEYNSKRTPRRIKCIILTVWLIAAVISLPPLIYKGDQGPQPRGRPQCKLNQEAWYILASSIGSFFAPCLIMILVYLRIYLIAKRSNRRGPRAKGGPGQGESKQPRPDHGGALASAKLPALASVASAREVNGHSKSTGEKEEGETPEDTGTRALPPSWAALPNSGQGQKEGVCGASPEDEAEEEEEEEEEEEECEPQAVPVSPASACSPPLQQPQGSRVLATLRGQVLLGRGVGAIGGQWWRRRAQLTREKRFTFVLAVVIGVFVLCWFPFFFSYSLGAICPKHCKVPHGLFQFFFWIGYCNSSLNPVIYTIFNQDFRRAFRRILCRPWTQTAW
In words: Test against other receptors: α-adrenergic 2B.

For the compound `CCCCC1CCN(CCCC(=O)c2ccccc2C)CC1` [Compound A, 4-n-Butyl-1-[4-(2-methylphenyl)-4-oxo-1-butyl]piperidine], the agonist activity entry in assay [1], in assay [2], in assay [3] and in assay [4] was “no significant activity” each time. The “inhibition of receptor responses (antagonist experiments)” value in assay [3] and in assay [4] was “did not inhibit” each time.
